Entries after “also recorded” stand apart in the source; their conditions may differ. Values belong to the molecule of their own block, whether it stands above or below them.
Assays:
[1] = Standing of the free base at room temperature after neutralization (TLC); assay type: physicochemical; settings: light yellow oil after NaHCO3 wash
Description: Dichloromethane (10 mL) was added and the solution was washed with saturated NaHCO3 solution, dried, and evaporated in vacuo. A light yellow oil was obtained, which, on standing at room temperature, turned dark red. […] Selected ^1H NMR signals after neutralization: δ2.72 (s, 3H, CH3), 3.09 and 3.35 (t, J=5 Hz, 8H, piperazine), 7.08 (s, 1H, 5-H), 8.02 (s, 1H, 1-H).

[2] = target: amyloid plaques in Alzheimer's brain (Homo sapiens, UniProt P05067); settings: cited from earlier work
[3] = target: T1, aggregated β-amyloid 1-40 injected into rat cortex (Homo sapiens, UniProt P05067); assay: In vivo labeling of aggregated β-amyloid injected into rat cortex
T1 construct: an aliquot of β-amyloid 1-40 was allowed to aggregate
Description: β-amyloid 250 μM (1.25 mg/mL in distilled water) was aggregated at 37° C. for 48 hours to produce fibrils confirmed by smears. Three rats were anesthetized. 3 μL of a solution of Aβ fibrils (1.25 μg/μL) were injected unilaterally into the cortex of each rat (Bregma 0, AP-4.1 mm, ML+2.0 mm, DV-3.1 mm). Then 3 μL of phosphate buffered saline (PBS) were injected into the contralateral side of each rat brain as a vehicle control. After injection, the needle remained for 5 minutes to prevent reflux, and then the cranial hole was sealed with bone wax. […]
[…] Additional immersion fixation of rat brain was at 4° C. overnight with PLP fixative. The rat brains were washed with PBS, saturated in 10 and 20% sucrose, and snap frozen in chilled isopentane (−70° C.) with liquid nitrogen. The brains were cryostat sectioned at […] around the needle-track and directly coverslipped with glycerol and fluorescence protectant (Vectashield™).

β-amyloid 1-40 = target: T2, β-amyloid 1-40 (Homo sapiens, UniProt P05067); assay: Labeling of aggregated β-amyloid dried onto a slide; assay type: binding; settings: aggregated 8 days at 37° C., dried onto gelatin coated slide
T2 construct: an aliquot of β-amyloid 1-40 was allowed to aggregate
Description: […] 5 μL were smeared on slides, air-dried and then rehydrated with distilled water. Alternatively, Aβ-positive brain tissue sections were rehydrated with distilled water. DDNP working solution was applied to each slide for 30 minutes at room temperature. The slides were washed three times for five minutes with distilled water. The slides were coverslipped with fluorescent protectant mounding media (Vectashield™, available Vector Labs., Burlingame, Calif.) and observed under a fluorescence microscope with a thioflavin S or FITC filter.

[4] = target: T3, plaque in Tg2576 HuAPPsw transgenic mouse brain (Homo sapiens, UniProt P05067); assay: In vitro fluorescence labeling of transgenic mouse brain section; assay type: binding
T3 construct: from tissue; host or cells: brain section of Tg2576 HuAPPsw transgenic mouse
Description: A 2.1 mg/mL DDNP stock solution was prepared, which was adjusted to 8 mM in 100% ethanol. A DDNP working solution was prepared by diluting the stock solution with distilled water in a ratio of 1:100-1000 (stock solution:distilled water). β-amyloid 250 μM (1.25 mg/mL in distilled water) was aggregated at 37° C. for 48 hours. 5 μL were smeared on slides, air-dried and then rehydrated with distilled water. Alternatively, Aβ-positive brain tissue sections were rehydrated with distilled water. DDNP working solution was applied to each slide for 30 minutes at room temperature. The slides were washed three times for five minutes with distilled water. The slides were coverslipped with fluorescent protectant mounding media (VectashieldTM, available Vector Labs., Burlingame, Calif.) and observed under a fluorescence microscope with a thioflavin S or FITC filter.

[5] = Storage of stock solution in the freezer; assay type: physicochemical; settings: stock in 100% ethanol, used at 1/100 to 1/1,000 dilutions
Description: (§1) A 2.1 mg/mL DDNP stock solution was prepared, which was adjusted to 8 mM in 100% ethanol. A DDNP working solution was prepared by diluting the stock solution with distilled water in a ratio of 1:100-1000 (stock solution:distilled water).

[6] = test system: β-amyloid plaques and neurofibrillary tangles; assay: In vitro fluorescence labeling of Alzheimer's disease brain tissue sections; assay type: binding, human; settings: for visualization of neurofibrillary tangles, amyloid peptides and diffuse amyloid: all Alzheimer's disease brain specimens, fluorescence; for fluorescent labeling of amyloid plaques: sections of Alzheimer's disease patient brain, fluorescence microscope
Description: as §1
β-amyloid 250 μM (1.25 mg/mL in distilled water) was aggregated at 37° C. for 48 hours. 5 μL were smeared on slides, air-dried and then rehydrated with distilled water. Alternatively, Aβ-positive brain tissue sections were rehydrated with distilled water. DDNP working solution was applied to each slide for 30 minutes at room temperature. The slides were washed three times for five minutes with distilled water. The slides were coverslipped with fluorescent protectant mounding media (Vectashield™, available Vector Labs., Burlingame, Calif.) and observed under a fluorescence microscope with a thioflavin S or FITC filter.
Since DDNP and its derivatives are fluorescent, an evaluation of the ability of [F-18]FDDNP to label β-amyloid plaques and neurofibrillary tangles in vitro was also performed with the same brain specimens.
In FIG. 5, the central image was obtained by immunostaining a forty five micrometer cryostate temporal cortex section of an Alzheimer's disease patient incubated with AT8 (anti-phosphotau) and 10G4 (anti-AB1-15) at 1:800. Insets are adjacent sections of the same Alzheimer's disease brain specimen stained with FDDNP. Images were generated using fluorescent scanning microscopy. Green arrows indicate approximate origin of inset with reference to central immunostaining section.

[7] = test system: β-amyloid plaques and neurofibrillary tangles; assay: In vitro autoradiography with brain specimens of Alzheimer diseased patients; assay type: binding, human
[8] = test system: β-amyloid plaques and neurofibrillary tangles; assay: PET imaging of patients after intravenous [F-18]FDDNP; assay type: in vivo, human
Description: A patient was placed in a tomograph to obtain brain dynamic PET images. 8.0 mCi of 2-(1.1-dicyanopropen-2-yl)-6-(2-[^18F]-fluoroethyl)-methylamino)-naphthalene ([F18]FDDNP) (specific activity: 5-12 Ci/micromol; mass:˜1 nanomol), prepared as described in Example 1(f), were injected intravenously into the arm of the patient. Dynamic acquisition data of brain images were recorded simultaneously in forty-seven brain planes for two hours.
Labeling and detection of human β-amyloid plaques and neurofibrillary tangles in vivo were conducted using the following procedures. Ten human subjects, seven Alzheimer's diseased patients (ages 71 to 80) and three control patients (ages 62 to 82) were studied. The patients were positioned supine in an EXACT HR+962 tomograph (Siemens-CTI, Knoxville, Tenn.) with the imaging plane parallel to the orbito-meatal line. Venous catheterization was performed, and then [F-18]FDDNP (5-10 mCi) in human serum albumin (25%) was administered as a bolus via the venous catheter. Sequential emission scans were obtained beginning immediately after [F-18]FDDNP administration using the following scan sequence: six 30 second scans, four 3 minute scans, five 10 minute scans, and three 20 minute scans. Rapid venous blood sampling was performed via the indwelling catheter in two subjects for input function determination and plasma metabolite analysis.
The residence time shown is in reference to that in the pons, an area known to have limited involvement in Alzheimer's disease pathology. The residence time was calculated from the clearance rates of the tracer in affected regions of interest (ROI) and in the pons as:
Residence time=[1/clearance rate for affected ROI]−[1/clearance rate for pons]
Separate ROIs were defined in entorhinal cortex, hippocampus, lateral temporal cortex and pons. The region with the slowest clearance rate was used as the affected ROI in the calculation of the residence time shown in FIG. 4.

T1 sequence (P05067 672-711 limits assumed): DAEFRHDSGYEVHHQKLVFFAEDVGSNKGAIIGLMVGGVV
T2 sequence (P05067 672-711 limits assumed): as above
amyloid plaques in Alzheimer's brain, sequence (P05067 672-713 limits assumed): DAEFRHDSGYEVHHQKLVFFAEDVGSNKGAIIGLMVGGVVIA
T3 sequence (P05067 672-713 limits assumed): as above

Molecule: CC(=C(C#N)C#N)c1ccc2cc(N3CCNCC3)ccc2c1 [2-[1-(6-piperazino-2-naphthyl)ethylidene]malononitrile]
stability on standing at room temperature [1]: decomposition

Molecule: O=C(O)c1cc(/N=N/c2ccc(-c3ccc(/N=N/c4ccc(O)c(C(=O)O)c4)cc3)cc2)ccc1O [Chrysamine G]
ability to label amyloid plaques in Alzheimer's brain [2]: weak

fluorescent labeling after formic acid treatment of section through the injection site ([3]; rat): removes fluorescent labeling | labeling contralateral to the amyloid injection site ([3]; rat, side where no amyloid is present): weak | passage of the blood brain barrier ([3]; rats): passes the blood brain barrier | melting point: 154.5 to 155 °C | fluorescent labeling of plaque [4]: labeling of a plaque
Molecule: CC(=C(C#N)C#N)c1ccc2cc(N(C)C)ccc2c1 [DDNP, 2-(1,1-dicyanopropen-2-yl)-6-dimethylaminonaphthalene]
in vivo fluorescent labeling of injected amyloid ([3]; rat, 100 μL of 640 μM DDNP into the carotid artery, sacrificed after 20 minutes, brain cryosections): fluorescently labeled amyloid at the tip of the need track | fluorescence of labeled aggregated β-amyloid 1-40 (β-amyloid 1-40): fibrillar fluorescence consistent with amyloid | stability of stock solution [5]: can be kept in the freezer for six months and still produce acceptable results | visualization of neurofibrillary tangles, amyloid peptides and diffuse amyloid [6]: excellent visualization | fluorescent labeling of tangles ([6]; cortex of the brain of an Alzheimer's disease patient): weak | fluorescent labeling of amyloid plaques [6]: able to label amyloid plaques; also recorded: readily labeled amyloid deposits; also recorded: amyloid plaques labeled; also recorded: strong; also recorded: labeling of a single, large plaque with an amyloid core

melting point: 153 to 154 °C
Molecule: CC(=O)c1ccc2cc(N3CCN(C(=O)OC(C)(C)C)CC3)ccc2c1 [Example 1(d), tert-Butyl-4-(6-acetyl-2-naphthyl)-1-piperazinecarboxylate]

Molecule: CC(=C(C#N)C#N)c1ccc2cc(N(C)CC[18F])ccc2c1 [[F-18]FDDNP]
binding / distribution of activity in autoradiography [7]: Binding was observed in hippocampus, temporal and parietal cortex | estimated residence time in reference to pons ([8]; Alzheimer's diseased patients vs control patients, affected ROI with slowest clearance rate): different from values in control patients | labeling of brain structures / accumulation of label ([8]; human patient, 8.0 mCi intravenously, dynamic PET for two hours): labels brain by structures in a manner consistent with the presence of beta amyloid plaques and neurofibrillary tangles; also recorded: maximum accumulation | regional clearance from brain ([8]; human, brain areas known to accumulate β-amyloid plaques and neurofibrillary tangles): slower clearance | crossing of the blood brain barrier ([8]; human, intravenous injection): crosses the blood brain barrier readily in proportion to blood flow | retention of activity in hippocampus-amygdala-entorhinal cortex ([8]; human, most cases, even patients with low severity of symptoms): high retention | visualization of neurofibrillary tangles, amyloid peptides and diffuse amyloid [6]: excellent visualization | structures stained (FIG. 5 insets) ([6]; temporal cortex sections of an Alzheimer's disease patient, fluorescent scanning microscopy): (1) neuritic plaques, (2) diffuse plaque, (3) vascular amyloid, (4) dense plaques and tangles, and (5) dense tangles

Molecule: Thioflavin S [reference compound]
fluorescent labeling of amyloid plaques [6]: labeling of a cored plaque

— patent US6660530B2, “Methods for labeling β-amyloid plaques and neurofibrillary tangles” (The Regents of the University of California, priority 1998, dated 2003)
